# Measurements reported in PubChem BioAssay AID2754 (The Scripps Research Institute Molecular Screening Center, 2010).
# The source made the active and inactive calls. How the calls were made is not given here.
# Biological target: VIM-2 metallo-beta-lactamase (Pseudomonas aeruginosa) (UniProt Q932Y6)
# Assay: VIM-2 metallo-beta-lactamase inhibitor potency, dose response, biochemical, epi-absorbance, common IMP-1/VIM-2 hits (AID 2754)
# Details: purified VIM-2 enzyme, absorbance substrate hydrolysis
row,SMILES,IC50
1,CN1C(=O)/C(=C\c2ccc(N(C)C)cc2)OC1=S,> 59.6 µM (inactive)
2,O=C(CCN1C(=O)/C(=C/c2ccc(Cl)cc2)SC1=S)NCCCn1ccnc1,> 59.6 µM (inactive)
3,CC(C)n1cc(/C=C/c2cc[n+](C)cc2)c2ccccc21,inactive
4,CCCCN(C)C1=CC2=CC(=C(C#N)C#N)CCC2CC1 (stereo unspecified),4.07 µM
5,CCN1/C(=C/C=C/c2oc3ccc4ccccc4c3[n+]2CC)Oc2ccc3ccccc3c21,> 59.6 µM (inactive)
6,CCCCn1c(=O)[nH]c2nc3cc(N)ccc3nc2c1=O,inactive
7,CCN(CC)c1ccc2c(-c3ccc(S(=O)(=O)O)cc3S(=O)(=O)[O-])c3ccc(=[N+](CC)CC)cc-3oc2c1,> 59.6 µM (inactive)
8,Cc1ccc(Cn2c(C(C)Nc3nc(-c4ccc(C)cc4)cs3)nc3cc(Cl)c(Cl)cc32)cc1 (stereo unspecified),inactive
9,O=C(Nc1ccc(C(F)(F)F)cc1)c1ccc(NC(=O)C2CCCO2)cc1 (stereo unspecified),> 59.6 µM (inactive)
10,Cc1cccc(N2C(=O)c3cccc4c(N)ccc(c34)C2=O)c1,inactive
11,CNc1ccc2c3c(cccc13)C(=O)N(C)C2=O,3.06 µM
12,CCOC(=O)C1CCCN(c2ccc([N+](=O)[O-])c3nonc23)C1 (stereo unspecified),inactive
13,CCN(CC)c1ccc2cc(C=O)c(=O)oc2c1,inactive
14,CCn1c(=S)sc2c(=O)n(CC(=O)Nc3ccccc3C(F)(F)F)c(C)nc21,> 59.6 µM (inactive)
15,O=C1c2cccc3c(O)ccc(c23)C(=O)N1c1ccc(Cl)cc1,inactive
16,CCN(CC)C1=CC2=CC(=C(C#N)C#N)CCC2CC1 (stereo unspecified),2.4 µM
17,CCN(CC)c1ccc2cc(C(=O)NCc3ccc(F)cc3)c(=N)oc2c1,> 59.6 µM (inactive)
18,CC(C)C(CCN1C(=O)c2ccccc2C1=O)c1ccco1 (stereo unspecified),inactive
19,CC(=O)Oc1ccc2c(c1)Oc1cc(OC(C)=O)ccc1C21OC(=O)c2ccccc21,inactive
20,CCOc1ccc(/C=C2\CCCc3c2nc2ccccc2c3C(=O)O)cc1OC,inactive
21,O=C1c2ccccc2-c2onc3ccc(NCCCn4ccnc4)c1c23,1.72 µM
22,O=C1/C(=C\c2cc(Cl)c(O)c(Cl)c2)SC(=S)N1Cc1ccccc1,inactive
23,Nc1cccc(N2C(=O)c3cccc4c(N)ccc(c34)C2=O)c1,inactive
24,O=c1cc(C(F)(F)F)c2cc3c4c(c2o1)CCCN4CCC3,inactive

row,SMILES,IC50
1,CCCCC(Sc1nc(N)c(NC(=O)c2ccco2)c(=O)[nH]1)C(=O)O (stereo unspecified),> 59.6 µM (inactive)
2,Nc1ccc(-c2c3ccc(=O)cc-3oc3cc(O)ccc23)cc1C(=O)O,4.47 µM
3,CCCCCCn1c(=O)[nH]c2nc3cc(N)ccc3nc2c1=O,inactive
4,CCOc1ccc(-c2cc(C(=O)NCCCn3ccnc3)c3cc(Br)ccc3n2)cc1,> 59.6 µM (inactive)
5,O=C1c2cccc3c(O)ccc(c23)C(=O)N1Cc1ccco1,inactive
6,COc1ccc(-c2cc(=O)oc3c(C)c(OCC(=O)NCCCn4ccnc4)ccc23)cc1,inactive
7,CCc1cc(=O)oc2cc(C)c(CN3CCCC3)c(O)c12,6.96 µM
8,CN1C(=O)c2cccc3c(N)ccc(c23)C1=O,7.17 µM
9,Cc1ccc2[nH]cc(/C=C/c3cc[n+](C)cc3)c2c1,inactive
10,Nc1ccc2c3c(cccc13)C(=O)N(c1ccccc1)C2=O,inactive
11,CN(C)/C=C1\C=C2C(=O)c3ccccc3N2C1=O,0.894 µM
12,COc1cc(/C=C2/SC(=S)N(Cc3ccccc3)C2=O)cc(OC)c1O,> 59.6 µM (inactive)
13,O=c1ccc2c(-c3ccccc3)c3ccc(O)cc3oc-2c1,0.374 µM
14,O=P(O)(O)c1cc(-c2ccccc2)oc1-c1ccccc1,inactive
15,Cn1cc(/C=C(\C(=O)O)C(C(=O)O)=C2CCCCC2)c2ccccc21,inactive
16,COc1ccc2c(Cl)c(C(=O)NCCCn3ccnc3)sc2c1Cl,> 59.6 µM (inactive)
17,COc1cc(OC)c(-c2c3cc(O)c(=O)cc-3oc3cc(O)c(O)cc23)cc1OC,5.11 µM
18,CCOc1cc2c(cc1/C=C/c1noc(C)c1[N+](=O)[O-])OC(C)C2 (stereo unspecified),> 59.6 µM (inactive)
19,COc1ccc(-c2occ(C(=O)O)c2C(=O)O)cc1,inactive
20,COc1ccc(/C=C2\CCCc3c2nc2ccccc2c3C(=O)O)cc1OC,inactive
21,CC(C)(C)c1ccc(-c2c(C(=O)O)c(C(=O)O)c3n2CSC3)cc1,inactive
22,O=[N+]([O-])c1ccc(N2CCCCCC2)c2nonc12,inactive
23,CCC(=C/c1sc2ccc3ccccc3c2[n+]1C)/C=C1\Sc2ccc3ccccc3c2N1C,> 59.6 µM (inactive)
24,CCN(CC)c1ccc(/C=C/C(=O)c2ccc(Br)cc2)cc1,8.45 µM

row,SMILES,IC50
1,COC(=O)c1sccc1NC(=O)c1ccc(C#N)cc1,> 59.6 µM (inactive)
2,Cc1nn(-c2ccccc2)c(Cl)c1/C=C(\CC(=O)O)c1nc2ccccc2s1,9.26 µM
3,O=C1CCN2C=Nc3cccc4ccc1c2c34,9.22 µM
4,N#CC(C#N)=C1C=C2C=C(N3CCOCC3)CCC2CC1 (stereo unspecified),2.74 µM
5,O=C(Nc1ccc2oc(-c3ccccc3F)nc2c1)c1ccc([N+](=O)[O-])o1,> 59.6 µM (inactive)
6,CN(/N=C/c1ccc(-c2ccc([N+](=O)[O-])cc2)o1)c1ccccc1,> 59.6 µM (inactive)
7,COCCCn1c(=NC(=O)c2ccccc2)c(C#N)cc2c(=O)n3cccc(C)c3nc21,> 59.6 µM (inactive)
8,COCCCNc1c2c3c(cccc3[nH]c1=O)C(=O)c1ccccc1-2,1.84 µM
9,CCCN1C(=O)c2cccc3c(N4CCCCC4)ccc(c23)C1=O,> 59.6 µM (inactive)
10,CCN1CCN(C2=CC3=CC(=C(C#N)C#N)CCC3CC2)CC1 (stereo unspecified),3.7 µM
11,CCN(CC)c1ccc2cc(-c3nc4ccccc4[nH]3)c(=O)oc2c1,2.73 µM
12,N#CC(C#N)=C1C=C2C=C(N3CCCCCC3)CCC2CC1 (stereo unspecified),2.51 µM
13,CCOC(=O)c1c2c3c(cccc3n(C)c1=O)C(=O)c1ccccc1-2,inactive
14,COc1ccccc1N1N=C(c2ccc([N+](=O)[O-])cc2)CC1c1ccccc1 (stereo unspecified),> 59.6 µM (inactive)
15,N=C1/C(=C\c2coc3ccccc3c2=O)C(=O)N=C2SC=CN12,inactive
16,COc1ccc(/C=C2/SC(c3ccc(C)cc3)=NC2=O)cc1OC,> 59.6 µM (inactive)
17,COc1ccccc1-c1csc(-n2ncc(C#N)c2N)n1,> 59.6 µM (inactive)
18,CC(=O)Nc1ccc(N2C(=O)c3cccc4c(O)ccc(c34)C2=O)cc1,inactive
19,Cc1n[nH]c(C)c1N1C(=O)c2cccc3c(N4CCCCCC4)ccc(c23)C1=O,inactive
20,O/C=c1\ccc2cccc3nc(C(F)(F)F)nc1c23,8.76 µM
21,CN1CCN(C2=CC3=CC(=C(C#N)C#N)CCC3CC2)CC1 (stereo unspecified),3 µM
22,Cc1nn(C)c(C)c1N1C(=O)c2cccc3c(N)ccc(c23)C1=O,8.99 µM
23,N#CC(C#N)=C1C=C2C=C(N3CCCCC3)CCC2CC1 (stereo unspecified),2.33 µM
